Reference: ChEMBL document CHEMBL5233263 (Eur J Med Chem, 2021)
Values belong to the compound of their own block, whether it stands above or below them.

Experiments:
[1] = molecular target: T1, D(4) dopamine receptor (Homo sapiens) (UniProt P21917); experiment: Agonist activity at human D4R assessed as [35S] GTPgammaS binding relative to control; conditions: filed as agonist
T1 sequence (whole entry): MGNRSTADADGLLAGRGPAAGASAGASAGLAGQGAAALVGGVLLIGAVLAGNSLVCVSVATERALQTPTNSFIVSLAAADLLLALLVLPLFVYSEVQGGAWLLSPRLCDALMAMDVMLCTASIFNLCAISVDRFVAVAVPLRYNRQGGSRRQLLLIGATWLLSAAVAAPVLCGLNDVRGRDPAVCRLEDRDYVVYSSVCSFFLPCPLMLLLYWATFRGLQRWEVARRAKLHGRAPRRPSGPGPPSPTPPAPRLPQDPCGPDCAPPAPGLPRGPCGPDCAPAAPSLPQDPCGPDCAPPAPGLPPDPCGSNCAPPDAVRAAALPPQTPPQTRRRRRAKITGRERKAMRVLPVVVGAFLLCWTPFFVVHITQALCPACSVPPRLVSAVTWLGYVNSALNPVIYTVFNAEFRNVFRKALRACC

D(4) dopamine receptor [2] = molecular target: T2, D(4) dopamine receptor (Homo sapiens, UniProt P21917); experiment: Agonist activity at human D4R assessed as [35S] GTPgammaS binding
T2 sequence (P21917 whole entry): T1 sequence (whole entry)

D(3) dopamine receptor [3] = molecular target: T3, D(3) dopamine receptor (Homo sapiens, UniProt P35462); experiment: Displacement of [3H]-spiperone from human D3 receptor expressed in CHO cells assessed as inhibition constant; assay type: cell-based
[4] = molecular target: T1, D(4) dopamine receptor (Homo sapiens); experiment: Binding affinity to human D4R at 1 uM relative to control
D(4) dopamine receptor [5] = molecular target: T2, D(4) dopamine receptor; experiment: Displacement of [3H]-spiperone from human D4 receptor expressed in CHO-K1 cells assessed as inhibition constant measured after 60 mins; assay type: cell-based
D(2) dopamine receptor [6] = molecular target: T4, D(2) dopamine receptor (Homo sapiens, UniProt P14416); experiment: Displacement of [3H]-spiperone from human D2 receptor assessed as inhibition constant
D(3) dopamine receptor [7] = molecular target: T3, D(3) dopamine receptor; experiment: Displacement of [3H]-spiperone from human D3 receptor assessed as inhibition constant
D(2) dopamine receptor [8] = molecular target: T4, D(2) dopamine receptor; experiment: Binding affinity to D2R (unknown origin) assessed as inhibition constant
D(3) dopamine receptor [9] = molecular target: T3, D(3) dopamine receptor; experiment: Binding affinity to D3R (unknown origin) assessed as inhibition constant
D(4) dopamine receptor [10] = molecular target: T2, D(4) dopamine receptor; experiment: Displacement of [3H]-spiperone from human D4 receptor expressed in CHO cells assessed as inhibition constant; assay type: cell-based
D(4) dopamine receptor [11] = molecular target: T2, D(4) dopamine receptor; experiment: Agonist activity at human D4R
D(2) dopamine receptor [12] = molecular target: T4, D(2) dopamine receptor; experiment: Binding affinity to human D2R assessed as inhibition constant
[13] = molecular target: T1, D(4) dopamine receptor (Homo sapiens); experiment: Agonist activity at human D4R at 10 uM relative to control
D(3) dopamine receptor [14] = molecular target: T3, D(3) dopamine receptor; experiment: Binding affinity to human D3R assessed as inhibition constant
D(4) dopamine receptor [15] = molecular target: T2, D(4) dopamine receptor; experiment: Agonist activity at D4R (unknown origin) by camp reporter assay
D(4) dopamine receptor [16] = molecular target: T2, D(4) dopamine receptor; experiment: Displacement of [3H]-methylspiperone from D4 (unknown origin) receptor expressed in HEK293T cells assessed as inhibition constant; assay type: cell-based
[17] = molecular target: T1, D(4) dopamine receptor (Homo sapiens); experiment: (§1) Displacement of [3H]-nemonapride from human D4 receptor expressed in CHO cells assessed as inhibition constant; assay type: cell-based
D(2) dopamine receptor [18] = molecular target: T4, D(2) dopamine receptor; experiment: Binding affinity to human D2R assessed as inhibition constant by Cheng-Prusoff equation analysis
D(2) dopamine receptor [19] = molecular target: T4, D(2) dopamine receptor; experiment: Displacement of [3H]-spiperone from human D2 receptor expressed in Sf9 cells assessed as inhibition constant
D(4) dopamine receptor [20] = molecular target: T2, D(4) dopamine receptor; experiment: Binding affinity to human D4R assessed as inhibition constant
D(4) dopamine receptor [21] = molecular target: T2, D(4) dopamine receptor; experiment: as §1; assay type: cell-based
D(4) dopamine receptor [22] = molecular target: T2, D(4) dopamine receptor; experiment: Agonist activity at D4R (unknown origin)
D(4) dopamine receptor [23] = molecular target: T2, D(4) dopamine receptor; experiment: Binding affinity to D4R (unknown origin) assessed as inhibition constant
D(4) dopamine receptor [24] = molecular target: T2, D(4) dopamine receptor; experiment: Displacement of [3H]-spiperone from human D4 receptor expressed in HEK293 cells assessed as inhibition constant; assay type: cell-based
[25] = molecular target: 5-hydroxytryptamine receptor 2A (Homo sapiens, UniProt P28223); experiment: Binding affinity to 5HT2A receptor (unknown origin) assessed as inhibition constant
D(2) dopamine receptor [26] = molecular target: T4, D(2) dopamine receptor; experiment: Agonist activity at human D2R expressed in HEK293 cells incubated for 3 mins by FLIPR analysis; assay type: cell-based

T4 sequence (P14416 whole entry): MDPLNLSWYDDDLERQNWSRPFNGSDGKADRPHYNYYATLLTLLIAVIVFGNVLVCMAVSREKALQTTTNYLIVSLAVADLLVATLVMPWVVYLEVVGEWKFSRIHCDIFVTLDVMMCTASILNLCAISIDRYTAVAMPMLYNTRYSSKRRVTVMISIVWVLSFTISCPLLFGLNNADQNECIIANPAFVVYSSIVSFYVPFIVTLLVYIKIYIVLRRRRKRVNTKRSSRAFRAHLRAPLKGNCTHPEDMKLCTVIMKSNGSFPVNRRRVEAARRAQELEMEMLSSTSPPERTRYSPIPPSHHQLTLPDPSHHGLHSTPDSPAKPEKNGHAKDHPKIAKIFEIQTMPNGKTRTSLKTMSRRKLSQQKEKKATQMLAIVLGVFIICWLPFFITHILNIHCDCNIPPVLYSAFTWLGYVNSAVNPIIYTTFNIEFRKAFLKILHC
T3 sequence (P35462 whole entry): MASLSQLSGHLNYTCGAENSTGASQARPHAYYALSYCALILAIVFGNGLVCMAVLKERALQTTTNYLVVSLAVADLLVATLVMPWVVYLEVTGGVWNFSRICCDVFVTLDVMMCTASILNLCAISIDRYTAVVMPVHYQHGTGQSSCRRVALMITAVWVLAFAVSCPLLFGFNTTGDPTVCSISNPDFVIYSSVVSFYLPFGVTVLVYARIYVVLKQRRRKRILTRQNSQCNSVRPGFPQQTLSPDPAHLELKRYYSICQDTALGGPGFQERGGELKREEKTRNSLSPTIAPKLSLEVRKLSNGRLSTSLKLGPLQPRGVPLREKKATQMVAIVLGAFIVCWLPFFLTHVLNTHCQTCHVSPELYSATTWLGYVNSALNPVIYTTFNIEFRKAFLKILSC
5-hydroxytryptamine receptor 2A, sequence (P28223 whole entry): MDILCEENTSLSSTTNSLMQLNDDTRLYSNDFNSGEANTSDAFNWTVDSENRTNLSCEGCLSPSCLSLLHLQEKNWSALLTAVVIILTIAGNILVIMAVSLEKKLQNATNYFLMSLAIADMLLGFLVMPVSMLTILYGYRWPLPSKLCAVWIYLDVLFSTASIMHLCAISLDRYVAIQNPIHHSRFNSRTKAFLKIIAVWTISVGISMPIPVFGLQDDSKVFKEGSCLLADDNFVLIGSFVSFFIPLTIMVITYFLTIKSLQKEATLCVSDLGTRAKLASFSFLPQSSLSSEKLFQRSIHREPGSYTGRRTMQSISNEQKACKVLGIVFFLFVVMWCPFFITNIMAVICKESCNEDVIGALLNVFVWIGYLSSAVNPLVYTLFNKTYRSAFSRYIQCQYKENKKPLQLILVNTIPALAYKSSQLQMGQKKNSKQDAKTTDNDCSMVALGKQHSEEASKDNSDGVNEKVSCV

Compound: CN(C)[C@@H](CNC(=O)NC[C@H]1Cc2ccccc21)CC1CCCCC1
Ki (D(2) dopamine receptor [8]): > 10000 nM | Ki (D(3) dopamine receptor [9]): 5400 nM

Compound: Cc1ncc(CN2CC=C(c3ccccc3)CC2)c(N)n1
Ki (D(4) dopamine receptor [10]): 5.2 nM | EC50 (D(4) dopamine receptor [11]): 205 nM | Ki (D(2) dopamine receptor [12]): > 1000 nM | Emax [13]: 36% | Ki (D(3) dopamine receptor [14]): > 1000 nM

Compound: CC(C)N1C[C@H](NC(=O)N2Cc3ccccc3[C@@H]2C)[C@@H](C)C1
Ki (D(2) dopamine receptor [8]): > 10000 nM | EC50 (D(4) dopamine receptor [15]): 0.18 nM | Ki (D(4) dopamine receptor [16]): 4.3 nM | Ki (D(3) dopamine receptor [9]): > 10000 nM

Compound: CCOC(=O)c1sc2[nH]cn/c(=N\[C@H]3CCN(CC)C3)c2c1C
Ki (D(2) dopamine receptor [8]): > 10000 nM | Ki (D(3) dopamine receptor [9]): > 10000 nM

Compound: CC(C)Oc1cccnc1N(C)C1CCN(Cc2ccc(I)cc2)CC1
Ki (D(2) dopamine receptor [19]): 568 nM

Compound: O/N=C/c1c(CN2CCN(c3ccccc3)CC2)[nH]c2ccccc12
Ki (D(4) dopamine receptor [10]): 0.5 nM | Ki (D(2) dopamine receptor [12]): 8800 nM | Ki (D(3) dopamine receptor [14]): 3700 nM

Compound: N#Cc1[nH]c2ccccc2c1CN1CCN(c2ccccc2)CC1
Ki (D(4) dopamine receptor [10]): 0.76 nM | Ki (D(2) dopamine receptor [12]): 4900 nM | Ki (D(3) dopamine receptor [14]): 2500 nM

Compound: Oc1cccc(OCCNCC2COCC(c3ccccc3)(c3ccccc3)O2)c1 (centres undefined)
Ki (D(2) dopamine receptor [8]): > 10000 nM | Ki (D(3) dopamine receptor [9]): 1.4 nM

Compound: CC(=O)O[C@H]1CC(C)(C)C(=C=C/C(C)=C/C=C/C(C)=C/C=C/C=C(C)/C=C/C=C(\C)C(=O)C[C@@]23O[C@]2(C)C[C@@H](O)CC3(C)C)[C@](C)(O)C1
EC50 (D(4) dopamine receptor [15]): 82000 nM | EC50 (D(4) dopamine receptor [22]): 16900 nM

Compound: NS(=O)(=O)c1ccc(N2CCN(CCC3OCCc4ccccc43)CC2)cc1 (centres undefined)
Ki (D(2) dopamine receptor [8]): 5150 nM | Ki (D(4) dopamine receptor [23]): 3.6 nM | Ki (D(3) dopamine receptor [9]): > 2780 nM

Compound: COc1ccccc1OCCNCC1COCC(c2ccccc2)(c2ccccc2)O1 (centres undefined)
Ki (D(2) dopamine receptor [8]): > 10000 nM | EC50 (D(4) dopamine receptor [15]): 1.4 nM | Ki (D(3) dopamine receptor [9]): 13 nM

Compound: COc1cccc(CCC2=NCCN2CCc2ccccc2)c1
Ki (D(2) dopamine receptor [8]): > 10000 nM | Ki (D(3) dopamine receptor [9]): > 10000 nM

Second part, the compound after the results:

Emax [1]: 54% | EC50 (D(4) dopamine receptor [2]): 3.7 nM | Ki (D(3) dopamine receptor [3]): 82 nM
Compound: COc1ccccc1N1CCN(Cc2ccc3cccccc2-3)CC1

Activity [4]: 78%
Compound: Clc1ccc2c(c1)N=C(N1CCN(CCCCc3ccncc3)CC1)c1ccccc1N2

Ki (D(4) dopamine receptor [5]): 31 nM | Ki (D(2) dopamine receptor [6]): 4700 nM | Ki (D(3) dopamine receptor [7]): 3400 nM
Compound: Clc1ccc2c(c1)N=C(N1CCN(c3ccccc3)CC1)CCN2

Ki (D(4) dopamine receptor [10]): 2.8 nM
Compound: COc1cc(Cl)ccc1OCC1CN(Cc2ccc(Cl)cc2)CCO1 (centres undefined)

K [17]: 3.6 nM | Ki (D(2) dopamine receptor [18]): > 5880 nM
Compound: OCc1ccc(N2CCN(Cc3nc4ccccc4[nH]3)CC2)cc1Cl

EC50 (D(4) dopamine receptor [15]): 10800 nM
Compound: CCOC(=O)c1nn(-c2ccccc2)cc1CN(C)[C@@H]1CCSC1

Ki (D(4) dopamine receptor [10]): 1.5 nM | Ki (D(2) dopamine receptor [12]): 22000 nM | Ki (D(3) dopamine receptor [14]): 15000 nM
Compound: CCOC(=O)c1[nH]c2ccc(F)cc2c1CN1CCN(c2ccccc2)CC1

Ki (D(2) dopamine receptor [8]): 10200 nM | Ki (D(4) dopamine receptor [20]): 260 nM | Ki (D(4) dopamine receptor [21]): 260 nM
Compound: CCOC(=O)N1CCN(Cc2cnn(-c3ccc(Cl)cc3)c2)CC1

Activity [4]: 82%
Compound: Clc1ccc2c(c1)N=C(N1CCN(CCCCc3ccccc3)CC1)c1ccccc1N2

Ki (D(4) dopamine receptor [10]): 0.66 nM | Ki (D(2) dopamine receptor [12]): 2100 nM | Ki (D(3) dopamine receptor [14]): 3300 nM
Compound: OCc1[nH]c2ccccc2c1CN1CCN(c2ccccc2)CC1

K (D(2) dopamine receptor [8]): > 1700 nM | Ki (D(4) dopamine receptor [24]): 1.5 nM | Ki (D(3) dopamine receptor [9]): 3200 nM
Compound: Clc1ccc(OCC2CN(Cc3c[nH]c4ncccc34)CCO2)cc1 (centres undefined)

Activity [4]: 81%
Compound: Clc1ccc2c(c1)N=C(N1CCN(CCCOc3ccccc3)CC1)c1ccccc1N2

Ki [25]: 103 nM
Compound: Clc1ccc2c(c1)C(N1CCN(CCc3ccccc3)CC1)=Nc1cccnc1N2

EC50 (D(2) dopamine receptor [26]): 12 nM
Compound: c1ccc(N2CCN(Cc3nc4ccccc4[nH]3)CC2)nc1 [ABT-724]
